Assay results reported in US20130344490A1, “NEOPLASTIC CELLS GROWN ON DECELLULARIZED BIOMATRIX” (priority 2012, published 2013).

How the values were obtained:
[1] = test system: human 1299 cells (NCI-H1299) cultured within rat decellularized biomatrices; test: Ki-67 and TUNEL staining of treated and untreated lung tissue constructs; type: cell-based; details: 50 μM Cisplatin from day 4 of culture; compared with untreated constructs (FIG. 14)
Source text: Lobes of same lungs were dissected at day 0 (day of seeding cancer cells onto biomatrix), day 3, day 7, and day 11 or day 14 (or both) in sterile conditions under the culture hood to see the progression of tumor growth. After lobectomy, lung tissues were placed in 70% ethanol and analyzed in the Pathology Core Laboratory at The Methodist Hospital Research Institute. Briefly, the tissues were fixed in 10% formalin overnight, processed, and embedded in paraffin. Embedded tissues were cut into […] slices and mounted on slides, and the paraffin was removed; antigen retrieval was performed with antigen unmasking solution (H-3300; Vector Laboratories, Burlingame, Calif.) in a steamer for 20 minutes. Slides were cooled for 20 minutes at room temperature, washed in PBS, and stained with hematoxylin and eosin, Movat Pentachrome (American MasterTech Scientific, Lodi, Calif.), elastin (VVG kit, Ventana Nexus, Tucson, Ariz.), and other markers following the standard protocol. Stained slides were examined by expert board-certified pathologists, and images were captured using a microscope (Olympus, Center Valley, Pa.). […] Treatment (Tx) with 50 μM Cisplatin was commenced at day 4 of culture, and treated tissue constructs and untreated controls were assessed and compared at days 4, 8, 11, and 14 of culture (FIGS. 11 and 12). […]

[2] = test system: human 1299 cells (NCI-H1299) cultured within rat decellularized biomatrices; test: Circulating cells in perfusion fluid of treated and untreated lung tissue constructs; type: cell-based; details: 50 μM Cisplatin from day 4 of culture, over the observed time period, untreated showed steady increase (FIG. 15)
Description: In some embodiments, the analyzing comprises determining the number of cells in the perfusion fluid used to perfuse a tissue construct as described herein. The number of cells in the perfusion fluid, also referred to as the number of circulating cells herein, can be used as an indicator for the metastatic properties of neoplastic cells cultured within the tissue construct. For example, in tissue constructs in which neoplastic cells are cultured within the interstitial space, and perfusion fluid is run through the vascular space, cells found in the perfusion fluid may stem from neoplastic cells that have migrated across the basement membrane separating the interstitial and the vascular space. Since the capability to migrate across the basement membrane and, thus, to enter into the blood stream, is a hallmark feature of metastasizing cancer cells, the ability to migrate across the basement membrane in a tissue construct is a biomarker useful for assessing metastatic capabilities of cells grown in tissue constructs provided herein. […] Treatment (Tx) with 50 μM Cisplatin was commenced at day 4 of culture, and treated tissue constructs and untreated controls were assessed and compared at days 4, 8, 11, and 14 of culture (FIGS. 11 and 12). […]

[3] = test system: human 1299 cells (NCI-H1299) cultured within rat decellularized biomatrices; test: Cisplatin treatment of tissue constructs: tumor size and live cells; type: cell-based; details: 50 μM Cisplatin from day 4 of culture
Description: A simplified, small, closed-system bioreactor was set up in an incubator for lung cell culture on the lung biomatrix (FIG. 1B). A custom-designed 500-mL glass bottle was used with three holes in the cap fitted with a female Luer thread-style panel (Cole-Parmer), one for the pulmonary artery cannula, one for the trachea cannula, and one for circulation of medium from the bottle. Medium was constantly circulated with the help of a Masterflex pump (Cole-Parmer) through a 10-foot length of silicone oxygenator tubing wrapped around a mesh of wire solenoid (Cole-Parmer). The medium was perfused through the pulmonary artery cannula into lungs at a flow rate of 6 mL/min. For controlled flow through the pulmonary artery, it was connected to a three-way stopcock (Smith Medical, Dublin, Ohio). The bottle was filled with 150 mL of complete medium or serum-free medium, which was circulated through the oxygenator tubing to prevent air bubbles. […] Treatment (Tx) with 50 μM Cisplatin was commenced at day 4 of culture, and treated tissue constructs and untreated controls were assessed and compared at days 4, 8, 11, and 14 of culture (FIGS. 11 and 12). […]

MMPs 1, 2, 7, 9, and 10 = test: MMP secretion into perfusion fluid of treated and untreated lung tissue constructs; type: cell-based, human; details: 50 μM Cisplatin from day 4 of culture
Source text: In some embodiments, the analyzing comprises an assessment of one or more molecules secreted into a perfusion fluid by the cells cultured within the tissue construct. For example, in a lung tissue construct, the analyzing may comprise detecting a protein, peptide, or nucleic acid in a perfusion fluid run through the pulmonary artery. In some embodiments, the secreted factor assessed is a secreted factor associated with cancer, or with a property of neoplastic cells, for example, with the metastatic capabilities of neoplastic cells. Secreted factors associated with cancer are known to those of skill in the art and include factors that are typically secreted by a tumor, such as growth factors and pro-angiogenic factors, as are factors associated with the metastatic capabilities of neoplastic cells. Metastasis-associated factors include, for example, matrix metalloproteases (MMPs, e.g., MMP-1, MMP-2, MMP-3, MMP-9, and MMP-10, as well as other MMPs). Tissue constructs were generated by culturing human 1299 cells, also known as NCI-H1299 or CRL-5803, a human non-small cell lung carcinoma cell line, within rat decellularized biomatrices. Treatment (Tx) with 50 μM Cisplatin was commenced at day 4 of culture, and treated tissue constructs and untreated controls were assessed and compared at days 4, 8, 11, and 14 of culture (FIGS. 11 and 12). […]

N.N.[Cl][Pt][Cl] [Cisplatin]
Ki-67 expression [1]: decreased in treated constructs | TUNEL staining [1]: widespread apoptotic processes | number of circulating cells [2]: gradual decrease over the observed time period after initial rapid release of the circulating cells | percentage of live cells ([3]; compared with non-treated constructs (FIG. 13)): dramatically decreased | Tumor size ([3]; compared with untreated constructs, days 4, 8, 11, 14 (FIG. 13)): dramatically decreased | Levels of the assessed MMPs at the end of the observation period (MMPs 1, 2, 7, 9, and 10; end of the observation period (FIG. 16)): no detectable levels | Levels of MMPs 1, 2, 7, 9, and 10 in perfusion fluid after start of treatment (MMPs 1, 2, 7, 9, and 10; untreated gradually increased over time (FIG. 16)): levels of all MMPs were diminished
